Structures are written as SMILES.

One experiment concerns the target T1, CDK9/CycT1 (Homo sapiens, UniProt P50750).
T1 construct: Recombinant full-length His-tagged human CDK9 and CycT1; purchased Life Technologies PV4131; host or cells: insect cells
Briefly: CDK9/CycT1 high ATP kinase assay (TR-FRET, 2 mM ATP). The class given is biochemical. The conditions noted are these: 2 mM ATP (high ATP); median; read-out: CDK9/CyclinT1, 2 mM ATP (high ATP), IC50 (median). The method in brief:
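Full-length His-tagged human CDK9/CycT1 (insect cell, ~0.5 μg/mL) preincubated 15 min at 22 °C with compound in Tris pH 8.0, MgCl2, DTT buffer before reaction with biotinylated peptide substrate at high ATP (2 mM).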
On the technique in general: In TR-FRET formats the signal depends on donor and acceptor labels being close together.

For experiment [1], the system named is CAL-120, human breast adenocarcinoma cells. Briefly: Proliferation assay CAL-120 (crystal violet, 4 days). The class given is cell-based. The conditions noted are these: Homo sapiens, CAL-120, 96 h, CAL-120 cells, median, read-out: Prolif-CAL-120, IC50-[mol/l] (median). Put shortly: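 Growth was measured by crystal violet staining after cells had been treated with compounds (0.01-10 µmol/L, 0.1% DMSO) for 4 days, beginning 24 h after seeding. Values were normalized to a zero-point plate and to untreated controls, and IC50 values were derived by a four-parameter fit.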

T1 sequence (P50750 whole entry): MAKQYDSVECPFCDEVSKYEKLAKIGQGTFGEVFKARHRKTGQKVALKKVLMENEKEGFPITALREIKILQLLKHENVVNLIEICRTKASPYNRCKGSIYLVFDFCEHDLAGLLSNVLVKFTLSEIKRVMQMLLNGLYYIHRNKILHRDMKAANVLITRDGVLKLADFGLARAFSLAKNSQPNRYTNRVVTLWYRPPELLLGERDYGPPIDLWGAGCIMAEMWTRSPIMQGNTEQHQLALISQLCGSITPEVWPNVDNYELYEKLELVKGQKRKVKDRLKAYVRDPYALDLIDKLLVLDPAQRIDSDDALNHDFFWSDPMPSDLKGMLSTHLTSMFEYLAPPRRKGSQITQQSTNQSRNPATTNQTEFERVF
T1 sequence (O60563 whole entry partner): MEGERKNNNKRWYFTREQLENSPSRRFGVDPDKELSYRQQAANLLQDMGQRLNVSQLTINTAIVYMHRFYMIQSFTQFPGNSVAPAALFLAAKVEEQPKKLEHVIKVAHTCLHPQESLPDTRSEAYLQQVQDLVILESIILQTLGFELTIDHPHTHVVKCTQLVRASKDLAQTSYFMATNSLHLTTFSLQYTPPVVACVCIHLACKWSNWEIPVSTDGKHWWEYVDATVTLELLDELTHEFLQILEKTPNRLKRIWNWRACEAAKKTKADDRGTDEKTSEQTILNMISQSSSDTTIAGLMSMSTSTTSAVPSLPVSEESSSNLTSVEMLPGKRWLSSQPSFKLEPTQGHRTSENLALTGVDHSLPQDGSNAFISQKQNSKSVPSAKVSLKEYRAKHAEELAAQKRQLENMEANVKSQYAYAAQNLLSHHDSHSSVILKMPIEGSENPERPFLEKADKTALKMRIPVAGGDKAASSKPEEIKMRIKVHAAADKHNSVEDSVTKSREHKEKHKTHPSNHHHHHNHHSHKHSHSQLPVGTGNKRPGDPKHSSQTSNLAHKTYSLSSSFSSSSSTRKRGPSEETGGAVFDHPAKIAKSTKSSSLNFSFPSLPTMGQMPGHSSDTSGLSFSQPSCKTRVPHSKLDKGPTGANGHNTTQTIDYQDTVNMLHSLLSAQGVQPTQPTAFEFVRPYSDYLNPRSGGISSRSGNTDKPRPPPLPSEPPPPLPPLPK

Regarding `Fc1cccc2[nH]c(CNc3nc(N4CC5CCC(C4)N5)nc4c(Cl)cnn34)nc12` [Example 363, 8-chloro-2-(3,8-diazabicyclo[3.2.1]octan-3-yl)-N-[(4-fluoro-1H-benzimidazol-2-yl)methyl]pyrazolo[1,5-a][1,3,5]triazin-4-amine], the IC50 was above 20000 nM on CDK9/CycT1 and 7.26 nM in experiment [1].

As to `Fc1cccc(-c2nnc(CNc3nc(N4CCOCC4)nc4c(C(F)(F)F)cnn34)[nH]2)c1` [Example 385, N-{[5-(3-fluorophenyl)-4H-1,2,4-triazol-3-yl]methyl}-2-(morpholin-4-yl)-8-(trifluoromethyl)pyrazolo[1,5-a][1,3,5]triazin-4-amine], the IC50 at CDK9/CycT1 came to 1290 nM; in experiment [1], 25.9 nM.

For `FC(F)(F)c1cnn2c(NCc3nc4cc(Cl)c(Cl)cc4[nH]3)nc(N3CCOCC3)nc12` [Example 332, N-[(5,6-dichloro-1H-benzimidazol-2-yl)methyl]-2-(morpholin-4-yl)-8-(trifluoromethyl)pyrazolo[1,5-a][1,3,5]triazin-4-amine], the figures for the IC50 (at CDK9/CycT1; in experiment [1]) were above 20000 nM and 10.9 nM, respectively.

For the compound `FC(F)(F)Oc1cccc2[nH]c(CNc3nc(N4CCOCC4)nc4c(Br)cnn34)nc12` [Example 375, 8-bromo-2-(morpholin-4-yl)-N-{[4-(trifluoromethoxy)-1H-benzimidazol-2-yl]methyl}pyrazolo[1,5-a][1,3,5]triazin-4-amine], the IC50 on CDK9/CycT1 came out at 14500 nM; in experiment [1], 68.6 nM.

`FC(F)(F)Oc1ccc2[nH]c(CNc3nc(N4C[C@H]5CC[C@@H](C4)N5)nc4c(Br)cnn34)nc2c1` [Example 382, 8-bromo-2-[(1R,5S)-3,8-diazabicyclo[3.2.1]octan-3-yl]-N-{[5-(trifluoromethoxy)-1H-benzimidazol-2-yl]methyl}pyrazolo[1,5-a][1,3,5]triazin-4-amine]: the IC50 on CDK9/CycT1 was above 20000 nM; in experiment [1] it was 12.4 nM.

Turning to `CC[C@@H](CO)Nc1nc(NCc2nc3ccccc3[nH]2)n2ncc(Br)c2n1` [Example 367, (2S)-2-[(4-{[(1H-benzimidazol-2-yl)methyl]amino}-8-bromopyrazolo[1,5-a][1,3,5]triazin-2-yl)amino]butan-1-ol], the IC50 on CDK9/CycT1 came to 17600 nM; in experiment [1], 31.4 nM.

For `CN(CC(C)(C)O)c1nc(NCc2nc3cc(C(F)(F)F)ccc3[nH]2)n2ncc(C3CC3)c2n1` [Example 323, 1-{[8-cyclopropyl-4-({[5-(trifluoromethyl)-1H-benzimidazol-2-yl]methyl}amino)pyrazolo[1,5-a][1,3,5]triazin-2-yl](methyl)amino}-2-methylpropan-2-ol], the IC50 on CDK9/CycT1 was above 20000 nM; in experiment [1], 5.4 nM.

For the compound `Fc1cc(F)cc(-c2nnc(CNc3nc(N4CCOCC4)nc4c(C(F)(F)F)cnn34)[nH]2)c1` [Example 386, N-{[5-(3,5-difluorophenyl)-4H-1,2,4-triazol-3-yl]methyl}-2-(morpholin-4-yl)-8-(trifluoromethyl)pyrazolo[1,5-a][1,3,5]triazin-4-amine], the IC50 was 749 nM on CDK9/CycT1 and 12.5 nM in experiment [1].

For `CN1CCN(c2nc(NCc3nc4c(F)c(F)ccc4[nH]3)n3ncc(Cl)c3n2)CC1` [Example 358, 8-chloro-N-[(4,5-difluoro-1H-benzimidazol-2-yl)methyl]-2-(4-methylpiperazin-1-yl)pyrazolo[1,5-a][1,3,5]triazin-4-amine], the IC50 on CDK9/CycT1 is above 20000 nM; in experiment [1], 4.05 nM.

With `FC(F)(F)Oc1cccc2[nH]c(CNc3nc(N4C[C@H]5CC[C@@H](C4)N5)nc4c(Br)cnn34)nc12` [Example 381, 8-bromo-2-[(1R,5S)-3,8-diazabicyclo[3.2.1]octan-3-yl]-N-{[4-(trifluoromethoxy)-1H-benzimidazol-2-yl]methyl}pyrazolo[1,5-a][1,3,5]triazin-4-amine], the IC50 at CDK9/CycT1 amounted to 14000 nM; in experiment [1], 30.8 nM.

Source of the values: patent US20230117034A1, “PYRAZOLOTRIAZINES” (Bayer Aktiengesellschaft, priority 2019, published 2023).
